These compounds were tested against T1, ERα (Homo sapiens, UniProt P03372) (assay: Estrogen receptor degradation activity: breast cancer cell ERα in cell western assay). Conditions: MCF7 cells, 4 hours, relative to fulvestrant 0.1 μM positive control.
T1 construct: host or cells: MCF7
T1 sequence (P03372 1-595): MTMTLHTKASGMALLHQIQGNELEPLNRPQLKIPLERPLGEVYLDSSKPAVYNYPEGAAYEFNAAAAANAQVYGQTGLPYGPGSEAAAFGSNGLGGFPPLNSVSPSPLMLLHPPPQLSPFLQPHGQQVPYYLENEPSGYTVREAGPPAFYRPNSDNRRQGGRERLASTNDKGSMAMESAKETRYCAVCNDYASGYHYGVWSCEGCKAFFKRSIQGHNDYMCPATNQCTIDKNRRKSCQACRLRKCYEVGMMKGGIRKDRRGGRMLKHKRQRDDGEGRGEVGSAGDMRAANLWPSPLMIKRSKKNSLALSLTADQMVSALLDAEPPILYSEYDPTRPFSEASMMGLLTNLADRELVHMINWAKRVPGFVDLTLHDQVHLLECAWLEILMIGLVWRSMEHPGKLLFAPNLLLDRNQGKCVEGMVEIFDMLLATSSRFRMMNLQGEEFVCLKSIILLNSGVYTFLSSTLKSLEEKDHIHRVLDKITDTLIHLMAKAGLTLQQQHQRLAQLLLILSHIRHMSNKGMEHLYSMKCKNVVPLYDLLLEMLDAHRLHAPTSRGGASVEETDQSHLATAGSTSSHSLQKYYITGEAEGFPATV
Format: cell-based
Protocol: Test: Estrogen Receptor Degradation Activity Said test involves measuring the in vitro degradation activity of the compounds of the Table 1a. The measurements of the degradation activities were made using a breast cancer cell ERα in cell western assay as described hereunder. MCF7 cells (ATCC) were seeded in 384 wells microplate (collagen coated) at a concentration of 10000 cells/30 μL per well in red phenol free MEM alpha medium (invitrogen) containing 5% charcoal dextran striped FBS. The following day, 9 points serial 1:5 dilution of each compound was added to the cells in 2.5p L at final concentrations ranging from 0.3-0.0000018 μM (in table 2), or 0.1 μM for fulvestrant (using as positive control). At 4 hours post compound addition the cells were fixed by adding 25 μL of formalin (final concentration 5% formalin containing 0.1% triton) for 10 minutes at room temperature and then washed twice with PBS. Then, 50 μL of LI-COR blocking buffer containing 0.1% Triton was added to plate for 30 minutes at room temperature. LI-COR blocking buffer was removed and cells were incubated overnight at cold room with 50 μL anti-ER rabbit monoclonal antibody (Thermo scientific MA1-39540) diluted at 1:1000 in LI-COR blocking buffer containing 0.1% tween-20. Wells which were treated with blocking buffer but no antibody were used as background control. Wells were washed twice with PBS (0.1% tween-20) and incubated at 37° C. for 60 minutes in LI-COR (0.1% tween-20) containing goat anti-rabbit antibody Alexa 488 (1:1000) and Syto-64 a DNA dye (2 μM final concentration). Cells were then washed 3 times in PBS and scanned in ACUMEN explorer (TTP-Labtech). Integrated intensities in the green fluorescence and red fluorescence were measured to determine the levels of ERα and DNA respectively. The degradation activity with respect to estrogen receptors in this test is given by the concentration which degrades 50% of the estrogen receptor (or IC50) in nM. The % of ERα levels decrease were determined as follows: % inhibition=100*(1−(sample−fulvestrant: DMSO−fulvestrant)).

Row | SMILES | % Degradation At 0.3 μM [%]
1 | Cl.O=C(O)c1ccc2c(c1)CCCC(c1cccc(OC(F)(F)F)c1)=C2c1ccc(CC2CN(CCCF)C2)cc1 [Compound 22, 9-(4-((1-(3-fluoropropyl)azetidin-3-yl)methyl)phenyl)-8-(3-(trifluoromethoxy)phenyl)-6,7-dihydro-5H-benzo[7]annulene-3-carboxylic acid, hydrochloride] | 92
2 | COc1ccc(C2=C(c3ccc(CC4CN(CCCF)C4)cc3)c3ccc(C(=O)O)cc3CCC2)c(C(F)(F)F)c1.Cl [Compound 25, 9-(4-((1-(3-fluoropropyl)azetidin-3-yl)methyl)phenyl)-8-(4-methoxy-2-(trifluoromethyl)phenyl)-6,7-dihydro-5H-benzo[7]annulene-3-carboxylic acid, hydrochloride] | 92
3 | O=C(O)c1ccc2c(c1)CCCC(c1ccc(OC(F)(F)F)cc1)=C2c1ccc(CC2CN(CCCF)C2)cc1 [Compound 27, 9-(4-((1-(3-fluoropropyl)azetidin-3-yl)methyl)phenyl)-8-(4-(trifluoromethoxy)phenyl)-6,7-dihydro-5H-benzo[7]annulene-3-carboxylic acid] | 93
4 | O=C(O)c1ccc2c(c1)CCCC(c1ccccc1OC(F)(F)F)=C2c1ccc(CC2CN(CCCF)C2)cc1 [Compound 30, 9-(4-((1-(3-fluoropropyl)azetidin-3-yl)methyl)phenyl)-8-(2-(trifluoromethoxy)phenyl)-6,7-dihydro-5H-benzo[7]annulene-3-carboxylic acid] | 92

Second part, the compound after the results:

Row | % Degradation At 0.3 μM [%] | SMILES
5 | 91 | Cc1ccc(C(F)F)c(C2=C(c3ccc(CC4CN(CCCF)C4)cc3)c3ccc(C(=O)O)cc3CCC2)c1 [Compound 23, 8-(2-(difluoromethyl)-5-methylphenyl)-9-(4-((1-(3-fluoropropyl)azetidin-3-yl)methyl)phenyl)-6,7-dihydro-5H-benzo[7]annulene-3-carboxylic acid]
6 | 92 | COc1ccc(C2=C(c3ccc(CC4CN(CCCF)C4)cc3)c3ccc(C(=O)O)cc3CCC2)c(C(F)F)c1 [Compound 24, 8-(2-(difluoromethyl)-4-methoxyphenyl)-9-(4-((1-(3-fluoropropyl)azetidin-3-yl)methyl)phenyl)-6,7-dihydro-5H-benzo[7]annulene-3-carboxylic acid]
7 | 93 | Cc1cc(C2=C(c3ccc(CC4CN(CCCF)C4)cc3)c3ccc(C(=O)O)cc3CCC2)ccc1C(F)(F)F [Compound 26, 9-(4-((1-(3-fluoropropyl)azetidin-3-yl)methyl)phenyl)-8-(3-methyl-4-(trifluoromethyl)phenyl)-6,7-dihydro-5H-benzo[7]annulene-3-carboxylic acid]
8 | 80 | COc1ccc(C(F)(F)F)cc1C1=C(c2ccc(CC3CN(CCCF)C3)cc2)c2ccc(C(=O)O)cc2CCC1.Cl [Compound 28, 9-(4-((1-(3-fluoropropyl)azetidin-3-yl)methyl)phenyl)-8-(2-methoxy-5-(trifluoromethyl)phenyl)-6,7-dihydro-5H-benzo[7]annulene-3-carboxylic acid, hydrochloride]
9 | 93 | Cc1ccc(C2=C(c3ccc(CC4CN(CCCF)C4)cc3)c3ccc(C(=O)O)cc3CCC2)cc1C(F)(F)F [Compound 29, 9-(4-((1-(3-fluoropropyl)azetidin-3-yl)methyl)phenyl)-8-(4-methyl-3-(trifluoromethyl)phenyl)-6,7-dihydro-5H-benzo[7]annulene-3-carboxylic acid]
10 | 92 | Cc1cc(C2=C(c3ccc(CC4CN(CCCF)C4)cc3)c3ccc(C(=O)O)cc3CCC2)c(C)cc1F [Compound 31, 8-(4-fluoro-2,5-dimethylphenyl)-9-(4-((1-(3-fluoropropyl)azetidin-3-yl)methyl)phenyl)-6,7-dihydro-5H-benzo[7]annulene-3-carboxylic acid]

— US20250263390A1, “NOVEL SUBSTITUTED 6,7-DIHYDRO-5H-BENZO[7]ANNULENE COMPOUNDS AND THEIR DERIVATIVES, PROCESSES FOR THEIR PREPARATION AND THERAPEUTIC USES THEREOF” (SANOFI, priority 2022, published 2025)
